Measured values taken from paper PMC4996973, “Topology and structure of an engineered human cohesin complex bound to Pds5B” (Nature Communications, 2016).

Key:
[1] = target: T1, bonsai cohesin trimer (Smc1^B, Smc3^B, Scc1) (Homo sapiens, UniProt Q14683+Q9UQE7, Q9UQE7:K38A/Q14683:DEL201-498/Q9UQE7:DEL205-491/Q14683:DEL676-977/Q9UQE7:DEL686-956); assay: radiolabelled ATPase assay, thin layer chromatography of released […]-Pi; type: biochemical; settings: labelled compound (γ-32P); ATP-binding region mutant, ATPase largely abolished
T1 construct: gene SMC1A; coiled coils of Smc1 and Smc3 truncated and replaced by two-residue linkers (superscript B = bonsai, not the SMC1B paralogue); Smc3^B-FLAG, Scc1-10HIS tags; co-expressed from baculovirus in Sf9; stoichiometric trimer, 222 kDa; with Double-strand-break repair protein rad21 homolog

[2] = target: T2, bonsai cohesin trimer (Smc1^B, Smc3^B, Scc1) (Homo sapiens, UniProt Q14683+Q9UQE7, Q14683:DEL201-498/Q9UQE7:DEL205-491/Q14683:DEL676-977/Q9UQE7:DEL686-956); assay: as above; type: biochemical; settings: labelled compound (γ-32P)
T2 construct: gene SMC1A; coiled coils of Smc1 and Smc3 truncated and replaced by two-residue linkers (superscript B = bonsai, not the SMC1B paralogue); Smc3^B-FLAG, Scc1-10HIS tags; co-expressed from baculovirus in Sf9; stoichiometric trimer, 222 kDa; with Double-strand-break repair protein rad21 homolog

[3] = target: T2, bonsai cohesin trimer (Smc1^B, Smc3^B, Scc1); assay: differential scanning fluorimetry (thermal shift); type: binding; settings: slowly hydrolysable ATP analogue; stabilises the complex; trimer inferred from context
Pds5B^10HIS [4] = target: T3, Pds5B^10HIS (human, UniProt Q9NTI5 1-1447); assay: cross-linking; chemical crosslinking followed by mass spectrometry of purified bonsai cohesin (co-expressed subunits) bound to Pds5B; 102 inter- and 244 intramolecular crosslinks; details in the Supplementary Methods; settings: both partners purified
T3 construct: Pds5B, human, recombinant; printed mass 165 kDa; source: sf9 cells (baculovirus), purified (Ni-NTA; imidazole removed by dilution and concentration or by size-exclusion chromatography on Superdex 200), freeze-thawed
T3 sequence (looked up): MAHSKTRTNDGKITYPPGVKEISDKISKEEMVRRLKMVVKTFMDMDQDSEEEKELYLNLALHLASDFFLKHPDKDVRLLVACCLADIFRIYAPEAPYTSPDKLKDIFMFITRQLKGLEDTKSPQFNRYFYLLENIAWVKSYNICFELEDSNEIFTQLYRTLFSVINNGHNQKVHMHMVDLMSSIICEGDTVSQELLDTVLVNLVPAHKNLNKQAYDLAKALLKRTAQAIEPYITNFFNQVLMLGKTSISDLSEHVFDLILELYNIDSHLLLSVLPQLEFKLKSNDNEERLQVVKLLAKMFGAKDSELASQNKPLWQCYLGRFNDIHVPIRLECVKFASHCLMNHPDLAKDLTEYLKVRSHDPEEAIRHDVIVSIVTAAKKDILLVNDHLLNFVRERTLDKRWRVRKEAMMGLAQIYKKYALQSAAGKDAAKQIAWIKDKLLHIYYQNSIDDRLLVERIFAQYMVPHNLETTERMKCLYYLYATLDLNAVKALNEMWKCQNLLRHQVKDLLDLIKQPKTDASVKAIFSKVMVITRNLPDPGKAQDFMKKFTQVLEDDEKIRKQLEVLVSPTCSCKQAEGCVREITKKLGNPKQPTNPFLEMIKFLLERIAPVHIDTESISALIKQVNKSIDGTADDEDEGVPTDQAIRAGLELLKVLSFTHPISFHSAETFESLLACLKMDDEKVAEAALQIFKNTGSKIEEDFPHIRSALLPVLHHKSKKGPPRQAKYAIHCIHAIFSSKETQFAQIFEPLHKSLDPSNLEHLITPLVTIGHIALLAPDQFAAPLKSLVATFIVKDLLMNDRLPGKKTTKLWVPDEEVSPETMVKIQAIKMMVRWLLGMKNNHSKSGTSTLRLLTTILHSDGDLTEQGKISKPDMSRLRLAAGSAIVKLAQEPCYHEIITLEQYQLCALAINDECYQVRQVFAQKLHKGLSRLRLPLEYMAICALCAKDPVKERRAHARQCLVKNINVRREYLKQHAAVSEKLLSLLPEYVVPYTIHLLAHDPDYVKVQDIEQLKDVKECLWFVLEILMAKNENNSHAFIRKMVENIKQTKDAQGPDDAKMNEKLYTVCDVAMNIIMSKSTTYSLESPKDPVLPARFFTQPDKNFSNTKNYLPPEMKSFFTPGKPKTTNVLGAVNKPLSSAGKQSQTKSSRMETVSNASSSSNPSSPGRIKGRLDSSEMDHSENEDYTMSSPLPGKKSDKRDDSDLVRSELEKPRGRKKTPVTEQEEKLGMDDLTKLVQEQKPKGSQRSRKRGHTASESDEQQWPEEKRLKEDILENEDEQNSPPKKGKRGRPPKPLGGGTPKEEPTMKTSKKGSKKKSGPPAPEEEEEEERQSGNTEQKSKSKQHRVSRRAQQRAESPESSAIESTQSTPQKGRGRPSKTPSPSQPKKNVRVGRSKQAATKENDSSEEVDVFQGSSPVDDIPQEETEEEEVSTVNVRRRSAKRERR

Pds5B^10HIS [5] = target: T3, Pds5B^10HIS; assay: negative staining EM, single-particle 3D reconstruction; GraFix-prepared complexes (0.1% glutaraldehyde gradient, ATPγS), uranyl formate stain; 3D models at 28-35 Å; densities assigned by difference maps; settings: both partners purified

Molecule: Nc1ncnc2c1ncn2[C@@H]1O[C@H](COP(=O)(O)OP(=O)(O)OP(=O)(O)O)[C@@H](O)[C@H]1O [ATP]
- radiolabelled ATPase assay, thin layer chromatography of released 32P-Pi [1]: The single point mutation largely abolished bonsai cohesin's ATPase activity
- radiolabelled ATPase assay, thin layer chromatography of released 32P-Pi [2]: Bonsai trimers containing wild-type NBDs ... were able to hydrolyse ATP

Molecule: Nc1ncnc2c1ncn2[C@@H]1O[C@H](COP(=O)(O)OP(=O)(O)OP(O)(O)=S)[C@@H](O)[C@H]1O [ATPγS]
- differential scanning fluorimetry (thermal shift) [3]: presence of the slowly hydrolyzable ATP-analogue ATPyS, as well as a near physiological pH improved the stability

B1: SA1 (natural protein, human, UniProt Q8WVM7 1-1258, looked up)
chain: MITSELPVLQDSTNETTAHSDAGSELEETEVKGKRKRGRPGRPPSTNKKPRKSPGEKSRIEAGIRGAGRGRANGHPQQNGEGEPVTLFEVVKLGKSAMQSVVDDWIESYKQDRDIALLDLINFFIQCSGCRGTVRIEMFRNMQNAEIIRKMTEEFDEDSGDYPLTMPGPQWKKFRSNFCEFIGVLIRQCQYSIIYDEYMMDTVISLLTGLSDSQVRAFRHTSTLAAMKLMTALVNVALNLSIHQDNTQRQYEAERNKMIGKRANERLELLLQKRKELQENQDEIENMMNSIFKGIFVHRYRDAIAEIRAICIEEIGVWMKMYSDAFLNDSYLKYVGWTLHDRQGEVRLKCLKALQSLYTNRELFPKLELFTNRFKDRIVSMTLDKEYDVAVEAIRLVTLILHGSEEALSNEDCENVYHLVYSAHRPVAVAAGEFLHKKLFSRHDPQAEEALAKRRGRNSPNGNLIRMLVLFFLESELHEHAAYLVDSLWESSQELLKDWECMTELLLEEPVQGEEAMSDRQESALIELMVCTIRQAAEAHPPVGRGTGKRVLTAKERKTQIDDRNKLTEHFIITLPMLLSKYSADAEKVANLLQIPQYFDLEIYSTGRMEKHLDALLKQIKFVVEKHVESDVLEACSKTYSILCSEEYTIQNRVDIARSQLIDEFVDRFNHSVEDLLQEGEEADDDDIYNVLSTLKRLTSFHNAHDLTKWDLFGNCYRLLKTGIEHGAMPEQIVVQALQCSHYSILWQLVKITDGSPSKEDLLVLRKTVKSFLAVCQQCLSNVNTPVKEQAFMLLCDLLMIFSHQLMTGGREGLQPLVFNPDTGLQSELLSFVMDHVFIDQDEENQSMEGDEEDEANKIEALHKRRNLLAAFSKLIIYDIVDMHAAADIFKHYMKYYNDYGDIIKETLSKTRQIDKIQCAKTLILSLQQLFNELVQEQGPNLDRTSAHVSGIKELARRFALTFGLDQIKTREAVATLHKDGIEFAFKYQNQKGQEYPPPNLAFLEVLSEFSSKLLRQDKKTVHSYLEKFLTEQMMERREDVWLPLISYRNSLVTGGEDDRMSVNSGSSSSKTSSVRNKKGRPPLHKKRVEDESLDNTWLNRTDTMIQTPGPLPAPQLTSTVLRENSRPMGDQIQEPESEHGSEPDFLHNPQMQISWLGQPKLEDLNRKDRTGMNYMKVRTGVRHAVRGLMEEDAEPIFEDVMMSSRSQLEDMNEEFEDTMVIDLPPSRNRRERAELRPDFFDSAAIIEDDSGFGMPMF
notes: SA1, human (146 kDa printed)
- binding result (Pds5B^10HIS [4]): binds

B2: Scc1^10HIS (natural protein, human, UniProt O60216 1-631, looked up)
chain: MFYAHFVLSKRGPLAKIWLAAHWDKKLTKAHVFECNLESSVESIISPKVKMALRTSGHLLLGVVRIYHRKAKYLLADCNEAFIKIKMAFRPGVVDLPEENREAAYNAITLPEEFHDFDQPLPDLDDIDVAQQFSLNQSRVEEITMREEVGNISILQENDFGDFGMDDREIMREGSAFEDDDMLVSTTTSNLLLESEQSTSNLNEKINHLEYEDQYKDDNFGEGNDGGILDDKLISNNDGGIFDDPPALSEAGVMLPEQPAHDDMDEDDNVSMGGPDSPDSVDPVEPMPTMTDQTTLVPNEEEAFALEPIDITVKETKAKRKRKLIVDSVKELDSKTIRAQLSDYSDIVTTLDLAPPTKKLMMWKETGGVEKLFSLPAQPLWNNRLLKLFTRCLTPLVPEDLRKRRKGGEADNLDEFLKEFENPEVPREDQQQQHQQRDVIDEPIIEEPSRLQESVMEASRTNIDESAMPPPPPQGVKRKAGQIDPEPVMPPQQVEQMEIPPVELPPEEPPNICQLIPELELLPEKEKEKEKEKEDDEEEEDEDASGGDQDQEERRWNKRTQQMLHGLQRALAKTGAESISLLELCRNTNRKQAAAKFYSFLVLKKQQAIELTQEEPYSDIIATPGPRFHII
notes: Scc1 (Rad21, Mcd1), human; also called Rad21; Mcd1
- binding result (Pds5B^10HIS [5]): binds
